Patent US20180237441A1, “Chemical Compounds” (GlaxoSmithKline Intellectual Property (No.2) Limited, priority 2015, published 2018)
pIC50: −log10 of the molar value. Read-outs that look alike come from different tables or passages of the source.

Biological target: T1, PERK (Homo sapiens, UniProt Q9NZJ5)
T1 sequence (Q9NZJ5 30-1116): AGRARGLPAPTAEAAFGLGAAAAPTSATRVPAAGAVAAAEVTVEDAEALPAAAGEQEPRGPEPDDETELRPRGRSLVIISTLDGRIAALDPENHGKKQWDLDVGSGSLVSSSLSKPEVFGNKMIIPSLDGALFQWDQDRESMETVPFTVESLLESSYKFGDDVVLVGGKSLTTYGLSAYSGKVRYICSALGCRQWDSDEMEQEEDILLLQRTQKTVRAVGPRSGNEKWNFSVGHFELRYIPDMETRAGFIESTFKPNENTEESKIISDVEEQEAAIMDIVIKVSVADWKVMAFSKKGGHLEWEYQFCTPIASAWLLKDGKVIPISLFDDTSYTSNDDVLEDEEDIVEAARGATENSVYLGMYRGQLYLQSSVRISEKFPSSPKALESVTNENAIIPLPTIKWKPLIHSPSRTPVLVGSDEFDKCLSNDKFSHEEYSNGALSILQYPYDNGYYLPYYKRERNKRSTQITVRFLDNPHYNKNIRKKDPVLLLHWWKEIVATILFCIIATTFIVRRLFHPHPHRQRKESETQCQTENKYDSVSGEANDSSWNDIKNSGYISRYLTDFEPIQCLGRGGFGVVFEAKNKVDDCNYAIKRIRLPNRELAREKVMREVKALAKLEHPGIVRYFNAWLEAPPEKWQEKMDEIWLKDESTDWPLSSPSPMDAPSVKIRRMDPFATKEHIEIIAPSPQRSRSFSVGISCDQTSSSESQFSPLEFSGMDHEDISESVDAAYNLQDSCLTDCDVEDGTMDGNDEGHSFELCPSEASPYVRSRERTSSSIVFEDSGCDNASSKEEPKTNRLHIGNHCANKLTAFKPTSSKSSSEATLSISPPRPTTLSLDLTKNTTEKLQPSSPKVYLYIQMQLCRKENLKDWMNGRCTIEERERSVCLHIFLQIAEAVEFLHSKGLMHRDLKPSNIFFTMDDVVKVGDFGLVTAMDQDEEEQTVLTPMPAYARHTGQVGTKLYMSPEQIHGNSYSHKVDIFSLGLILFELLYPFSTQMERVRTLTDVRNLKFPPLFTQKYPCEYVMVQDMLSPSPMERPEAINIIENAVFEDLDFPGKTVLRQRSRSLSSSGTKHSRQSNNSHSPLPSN
Test: PERK enzyme assay (HTRF)
Assay type: biochemical
Conditions: at least one experimental run
Procedure, shortened: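 HTRF read-out after 2 h of EDTA-quenched reactions, detecting phospho-eIF2α with Eu/APC reagents, gave IC50 values. Reaction: 0.75 nM GST-PERK, 30–60 min compound pre-incubation (max 1% DMSO), then 60 min with 40 nM biotin-eIF2α and 500 μM ATP, HEPES pH 7.5 buffer.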

[1] = 500 μM ATP, read-out: PERK Enzyme (500 μM ATP) IC50
[2] = PERK Enzyme (500 μM ATP) IC50, read-out: PERK Activity

Structure (SMILES)	pIC50 [1]	pIC50 [2]
CN1C(=O)N(c2ccc(-c3cn(C)c4ncnc(N)c34)c(F)c2)CC1c1ccc(F)cc1 (single isomer, unassigned) [Example 59, 1-(4-(4-amino-7-methyl-7H-pyrrolo[2,3-d]pyrimidin-5-yl)-3-fluorophenyl)-4-(4-fluorophenyl)-3-methylimidazolidin-2-one]	8.41	> 7.00
CN1C(=O)N(c2ccc(-c3cn(C4CC4)c4ncnc(N)c34)c(F)c2)CC1c1ccc(F)cc1F (single isomer, unassigned) [Example 155, 1-(4-(4-amino-7-cyclopropyl-7H-pyrrolo[2,3-d]pyrimidin-5-yl)-3-fluorophenyl)-4-(2,4-difluorophenyl)-3-methylimidazolidin-2-one]	–	> 7.00
CN1C(=O)N(c2ccc(-c3cn(C)c4ncnc(N)c34)c(F)c2)CC1c1ccc2c(c1)CCO2 (single isomer, unassigned) [Example 169, 1-(4-(4-amino-7-methyl-7H-pyrrolo[2,3-d]pyrimidin-5-yl)-3-fluorophenyl)-4-(2,3-dihydrobenzofuran-5-yl)-3-methylimidazolidin-2-one]	–	> 7.00
Cc1nc(N)c2c(-c3ccc(N4CC(c5cc(F)cc(F)c5)N(C)C4=O)cc3F)cn(C)c2n1 (single isomer, unassigned) [Example 104, 1-(4-(4-amino-2,7-dimethyl-7H-pyrrolo[2,3-d]pyrimidin-5-yl)-3-fluorophenyl)-4-(3,5-difluorophenyl)-3-methylimidazolidin-2-one]	–	> 7.00
CN1C(=O)N(c2ccc(-c3cn(CC(F)(F)F)c4ncnc(N)c34)c(F)c2)CC1c1ccc(F)cc1F (stereo not shown) [Example 82, 1-(4-(4-amino-7-(2,2,2-trifluoroethyl)-7H-pyrrolo[2,3-d]pyrimidin-5-yl)-3-fluorophenyl)-4-(2,4-difluorophenyl)-3-methylimidazolidin-2-one]	–	6.00 to 7.00
CN1C(=O)N(c2ccc(-c3cn(C)c4ncnc(N)c34)c(F)c2)CC1c1ccc(F)c(F)c1 (stereo not shown) [Example 96, 1-(4-(4-amino-7-methyl-7H-pyrrolo[2,3-d]pyrimidin-5-yl)-3-fluorophenyl)-4-(3,4-difluorophenyl)-3-methylimidazolidin-2-one]	–	> 7.00
Cc1nc(N)c2c(-c3ccc(N4CC(c5cc(F)ccc5F)N(C)C4=O)cc3F)cn(C)c2n1 (stereo not shown) [Example 15, 1-(4-(4-amino-2,7-dimethyl-7H-pyrrolo[2,3-d]pyrimidin-5-yl)-3-fluorophenyl)-4-(2,5-difluorophenyl)-3-methylimidazolidin-2-one]	–	> 7.00
CN1C(=O)N(c2ccc(-c3cn(C)c4ncnc(N)c34)c(F)c2)CC1c1ccc(F)c(Cl)c1 (single isomer, unassigned) [Example 133, 1-(4-(4-amino-7-methyl-7H-pyrrolo[2,3-d]pyrimidin-5-yl)-3-fluorophenyl)-4-(3-chloro-4-fluorophenyl)-3-methylimidazolidin-2-one]	–	> 7.00
CCN1C(=O)N(c2ccc(-c3cn(C)c4ncnc(N)c34)c(F)c2)CC1c1cccc(C)c1 (stereo not shown) [Example 36, 1-(4-(4-amino-7-methyl-7H-pyrrolo[2,3-d]pyrimidin-5-yl)-3-fluorophenyl)-3-ethyl-4-(m-tolyl)imidazolidin-2-one]	6.34	6.00 to 7.00
CCN1C(=O)N(c2ccc(-c3cn(C)c4ncnc(N)c34)c(F)c2)CC1c1cc(F)cc(F)c1 (single isomer, unassigned) [Example 172, 1-(4-(4-amino-7-methyl-7H-pyrrolo[2,3-d]pyrimidin-5-yl)-3-fluorophenyl)-4-(3,5-difluorophenyl)-3-ethylimidazolidin-2-one]	7.52	> 7.00
CN1C(=O)N(c2ccc(-c3cn(C)c4ncnc(N)c34)c(F)c2)CC1c1cc(F)c(F)cc1F (single isomer, unassigned) [Example 159, 1-(4-(4-amino-7-methyl-7H-pyrrolo[2,3-d]pyrimidin-5-yl)-3-fluorophenyl)-3-methyl-4-(2,4,5-trifluorophenyl)imidazolidin-2-one]	–	6.00 to 7.00
Cn1cc(-c2ccc(N3CC(c4cc(F)ccc4F)CC3=O)cc2F)c2c(N)ncnc21 (stereo not shown) [Example 31, 1-(4-(4-amino-7-methyl-7H-pyrrolo[2,3-d]pyrimidin-5-yl)-3-fluorophenyl)-4-(2,5-difluorophenyl)pyrrolidin-2-one]	–	6.00 to 7.00
CN1C(=O)N(c2ccc(-c3cn(C4CC4)c4ncnc(N)c34)c(F)c2)CC1c1ccc(F)c(Cl)c1 (single isomer, unassigned) [Example 134, 1-(4-(4-amino-7-cyclopropyl-7H-pyrrolo[2,3-d]pyrimidin-5-yl)-3-fluorophenyl)-4-(3-chloro-4-fluorophenyl)-3-methylimidazolidin-2-one]	–	> 7.00
CN1C(=O)N(c2ccc(-c3cn(C4CC4)c4ncnc(N)c34)c(F)c2)CC1c1cccc(Cl)c1 (single isomer, unassigned) [Example 153, 1-(4-(4-amino-7-cyclopropyl-7H-pyrrolo[2,3-d]pyrimidin-5-yl)-3-fluorophenyl)-4-(3-chlorophenyl)-3-methylimidazolidin-2-one]	–	6.00 to 7.00
CN1C(=O)N(c2ccc(-c3cn(C4CC4)c4ncnc(N)c34)c(F)c2)CC1c1ccc(F)cc1F (single isomer, unassigned) [Example 137, 1-(4-(4-amino-7-cyclopropyl-7H-pyrrolo[2,3-d]pyrimidin-5-yl)-3-fluorophenyl)-4-(2,4-difluorophenyl)-3-methylimidazolidin-2-one]	7.75	> 7.00
Cn1cc(-c2ccc(N3CC(c4cc(F)cc(F)c4)CC3=O)cc2)c2c(N)ncnc21 (stereo not shown) [Example 29, 1-(4-(4-amino-7-methyl-7H-pyrrolo[2,3-d]pyrimidin-5-yl)phenyl)-4-(3,5-difluorophenyl)pyrrolidin-2-one]	–	6.00 to 7.00
CN1C(=O)N(c2ccc(-c3cn(C4CC4)c4ncnc(N)c34)c(F)c2)CC1c1cccc(F)c1 (single isomer, unassigned) [Example 126, 1-(4-(4-amino-7-cyclopropyl-7H-pyrrolo[2,3-d]pyrimidin-5-yl)-3-fluorophenyl)-4-(3-fluorophenyl)-3-methylimidazolidin-2-one]	–	> 7.00
Cc1nc(C2CN(c3ccc(-c4cn(C)c5ncnc(N)c45)c(F)c3)C(=O)N2C)ccc1F (single isomer, unassigned) [Example 113, 1-(4-(4-amino-7-methyl-7H-pyrrolo[2,3-d]pyrimidin-5-yl)-3-fluorophenyl)-4-(5-fluoro-6-methylpyridin-2-yl)-3-methylimidazolidin-2-one]	–	> 7.00
Cn1cc(-c2ccc(N3CC(c4cccc(Cl)c4F)CC3=O)cc2F)c2c(N)ncnc21 (stereo not shown) [Example 35, 1-(4-(4-amino-7-methyl-7H-pyrrolo[2,3-d]pyrimidin-5-yl)-3-fluorophenyl)-4-(3-chloro-2-fluorophenyl)pyrrolidin-2-one]	–	6.00 to 7.00
Cn1cc(-c2ccc(N3CC(c4cc(F)cc(F)c4)CC3=O)nc2)c2c(N)ncnc21 (stereo not shown) [Example 32, 1-(5-(4-amino-7-methyl-7H-pyrrolo[2,3-d]pyrimidin-5-yl)pyridin-2-yl)-4-(3,5-difluorophenyl)pyrrolidin-2-one]	–	6.00 to 7.00
CCN1C(=O)N(c2ccc(-c3cn(C)c4ncnc(N)c34)c(F)c2)CC1c1cc(F)cc(C(F)(F)F)c1 (single isomer, unassigned) [Example 89, 1-(4-(4-amino-7-methyl-7H-pyrrolo[2,3-d]pyrimidin-5-yl)-3-fluorophenyl)-3-ethyl-4-(3-fluoro-5-(trifluoromethyl)phenyl)imidazolidin-2-one]	–	6.00 to 7.00
CN1C(=O)N(c2ccc(-c3cn(C)c4ncnc(N)c34)c(F)c2)CC1c1cc(F)c(F)cc1F (stereo not shown) [Example 156, 1-(4-(4-amino-7-methyl-7H-pyrrolo[2,3-d]pyrimidin-5-yl)-3-fluorophenyl)-3-methyl-4-(2,4,5-trifluorophenyl)imidazolidin-2-one]	–	> 7.00
CCN1C(=O)N(c2ccc(-c3cn(C)c4ncnc(N)c34)c(F)c2)CC1c1cc(F)ccc1F (single isomer, unassigned) [Example 2, 1-(4-(4-amino-7-methyl-7H-pyrrolo[2,3-d]pyrimidin-5-yl)-3-fluorophenyl)-4-(2,5-difluorophenyl)-3-ethylimidazolidin-2-one]	7.11	> 7.00
